The values that follow come from patent US20110065663A1, “ANTI-CANCER COMBINATION THERAPY” (Katholieke Universiteit Leuven, K.U. Leuven R&D, priority 2008, published 2011).

One assay relates to M. hyorhinis TP. The assay is described as follows: TP activity in the medium of MCF-7/HYOR cell cultures (HPLC, conversion of nucleoside to free base). Format: biochemical, Mycoplasma hyorhinis. Particulars: for Percent conversion of nucleoside to the free pyrimidine base in MCF-7/HYOR medium: 37° C. As to the method:
(§1) The TP activity of M. hyorhinis and the conversion of dThd, FdUrd, 5′DFUR and TFT to thymine, 5FU, 5FU or TF-thymine respectively were measured by high-pressure liquid chromatography (HPLC) analysis. MCF-7 and MCF-7/HYOR cells were seeded at a density of 20,000 cells/cm^2 in DMEM with 10% FBS. Four days later, the medium was collected and cleared by centrifugation at 1,400 rpm. For some experiments, the medium of MCF-7/HYOR cells was filtered using a 0.1 μm micro filter (Acrodisc syringe filter, PALL Corporation, East Hills, N.Y.) to remove the mycoplasmas from the medium. 600 μl of the medium was incubated with 200 μM of substrate (dThd, 5′DFUR, TFT or FdUrd) at 37° C. in the presence or absence of 10 μM TPi. At different time points (i.e. 0, 15, 30, 60, 120 minutes and 16 hours), 100 μl aliquots were withdrawn, transferred to Eppendorf tubes and heated at 95° C. for 3 min. Next, the samples were rapidly cooled on ice, exposed for 20 min to 200 μl ice-cold methanol and cleared by centrifugation at 15,000 rpm for 15 minutes. As a positive control, an enzyme activity assay with E. coli TP (Sigma) was performed. For this reaction, 0.025 U of TP were incubated with 200 μM of substrate in TP-buffer (10 mM Tris-HCl, pH 7.6, 1 mM EDTA, 2 mM potassium phosphate and 150 mM NaCl) in a total volume of 600 μl. Aliquots of 100 μl were withdrawn from the reaction mixture at several time points and treated as described above. The nucleosides were separated from their nucleobases on a reversed-phase RP-8 column (Merck, Darmstadt, Germany) and quantified by HPLC analysis (Aliance 2690, Waters, Milford, Mass.). The separation was performed by a linear gradient from 100% buffer B (50 mM NaH2PO4 and 5 mM heptane sulfonic acid, pH 3.2), to 20% buffer B and 80% acetonitrile. […] UV-based detection of all nucleosides was performed at 267 nm.

Another assay relates to M. hyorhinis. The assay is described as follows: Staining of DNA with Hoechst 33342, growth of M. hyorhinis in MCF-7 cell cultures. Particulars: 10 μM; 3 days. It counts as cell-based, Mycoplasma hyorhinis. As to the method: 10,000 cells/cm^2 (MCF-7 and MCF-7/HYOR) were seeded in 8-well chamber slides (Nunc, Roskilde, Denmark). After 24 hours, 10 μM TPi was added and the cells were incubated for an additional 72 hours. Next, the cells were fixed with Carnoy's fixative (1 part glacial acetic acid to 3 parts absolute methanol) for 10 minutes, air-dried and exposed to the DNA-binding dye Hoechst 33342 (Sigma) at a concentration of 0.5 μg/ml for 15 min at room temperature. Next, the cells were washed twice with de-ionised water and covered with mounting medium (‘glycergel’, Dako, Glostrup, Denmark) and a cover slip. Fluorescence was visualised with a Leica TCS SP5 confocal microscope (Leica, Wetzlar, Germany).

The target in the next assay is T1, E. coli TP (Escherichia coli, UniProt P07650).
T1 construct: purchased Sigma
The assay is described as follows: Enzyme activity assay with recombinant E. coli TP (positive control). It counts as biochemical. Particulars: 0.025 U TP, 200 μM substrate. As to the method:
The TP activity of M. hyorhinis and the conversion of dThd, FdUrd, 5′DFUR and TFT to thymine, 5FU, 5FU or TF-thymine respectively were measured by high-pressure liquid chromatography (HPLC) analysis. MCF-7 and MCF-7/HYOR cells were seeded at a density of 20,000 cells/cm^2 in DMEM with 10% FBS. Four days later, the medium was collected and cleared by centrifugation at 1,400 rpm. For some experiments, the medium of MCF-7/HYOR cells was filtered using a 0.1 μm micro filter (Acrodisc syringe filter, PALL Corporation, East Hills, N.Y.) to remove the mycoplasmas from the medium. 600 μl of the medium was incubated with 200 μM of substrate (dThd, 5′DFUR, TFT or FdUrd) at 37° C. in the presence or absence of 10 μM TPi. At different time points (i.e. 0, 15, 30, 60, 120 minutes and 16 hours), 100 μl aliquots were withdrawn, transferred to Eppendorf tubes and heated at 95° C. for 3 min. Next, the samples were rapidly cooled on ice, exposed for 20 min to 200 μl ice-cold methanol and cleared by centrifugation at 15,000 rpm for 15 minutes. As a positive control, an enzyme activity assay with E. coli TP (Sigma) was performed. For this reaction, 0.025 U of TP were incubated with 200 μM of substrate in TP-buffer (10 mM Tris-HCl, pH 7.6, 1 mM EDTA, 2 mM potassium phosphate and 150 mM NaCl) in a total volume of 600 μl. Aliquots of 100 μl were withdrawn from the reaction mixture at several time points and treated as described above. The nucleosides were separated from their nucleobases on a reversed-phase RP-8 column (Merck, Darmstadt, Germany) and quantified by HPLC analysis (Aliance 2690, Waters, Milford, Mass.). The separation was performed by a linear gradient from 100% buffer B (50 mM NaH2PO4 and 5 mM heptane sulfonic acid, pH 3.2), to 20% buffer B and 80% acetonitrile. Retention times of thymine and thymidine were respectively 5.1 and 10.8 minutes. UV-based detection of all nucleosides was performed at 267 nm.

The next assay deals with MCF-7/HYOR cell cultures. The assay is described as follows: Nucleoside metabolism experiments, distribution of drug-derived radiolabel in MCF-7/HYOR cell cultures. It counts as cell-based, human. Particulars: MCF-7/HYOR. Here is the method: Next, the cells were trypsinized, transferred to Eppendorf tubes and centrifuged for 10 minutes at 1,400 rpm. The pellet was resuspended in 1 ml absolute ice-cold methanol and kept on ice for 20 minutes. After centrifugation for 20 minutes at 13,000 rpm the pellet was washed twice with methanol, resuspended in methanol and transferred to scintillation vials containing 9 ml of Ready safe liquid scintillation reagent (‘Hisafe 3’, Perkin Elmer, Waltham, Mass.). The radioactivity was measured by a Liquid scintillation analyzer (2300 TR, Packard, Canberra, Australia). […] Next, the cells were incubated in 0.5 ml absolute ice-cold methanol and kept on ice for 20 minutes. After centrifugation for 20 minutes at 13,000 rpm, the supernatant was subjected to HPLC analysis. […] The amount of compound incorporated into nucleic acids was measured as described above.

Assay [1] has as its system MCF-7/HYOR cells. The assay is described as follows: Nucleotide incorporation assay, MCF-7/HYOR compared with MCF-7 cells. It counts as cell-based, human. Particulars: 1 μCi radiolabeled compound; FIG. 4. Here is the method:
MCF-7 and MCF-7/HYOR cells were seeded at 10,000 cells/cm. After 48 hours, cells were treated with 1 μCi of ^3H-labeled nucleoside with or without 10 μM TPi. 16 h later, the medium was removed and the cells were washed twice with PBS. Next, the cells were trypsinized, transferred to Eppendorf tubes and centrifuged for 10 minutes at 1,400 rpm. The pellet was resuspended in 1 ml absolute ice-cold methanol and kept on ice for 20 minutes. After centrifugation for 20 minutes at 13,000 rpm the pellet was washed twice with methanol, resuspended in methanol and transferred to scintillation vials containing 9 ml of Ready safe liquid scintillation reagent (‘Hisafe 3’, Perkin Elmer, Waltham, Mass.). The radioactivity was measured by a Liquid scintillation analyzer (2300 TR, Packard, Canberra, Australia).

A short description of assay [2]: Conversion of nucleosides in the medium of uninfected MCF-7 cells. Format: biochemical, human. Particulars: even after 24 hours of incubation; data not shown. Here is the method:
as §1, with “At different time points (i.e. 0, 15, 30, 60, 120 minutes and 16 hours), 100 μl aliquots were withdrawn, transferred to Eppendorf tubes and heated at 95° C. for 3 min.” left out

The next assay has as its system MCF-7 cells. The assay is described as follows: Tumor cell proliferation assay, uninfected MCF-7 cells. Format: cell-based, human. Particulars: Homo sapiens, uninfected MCF-7. As to the method: MCF-7 and MCF-7/HYOR cells were seeded in 48-well plates at 10,000 cells/cm^2. […] of the test compounds (5FU, 5′DFUR, CIdUrd, BrdUrd, IdUrd and TFT) with or without 10 μM TPi were added. The cells were incubated for another 4 days, trypsinized and counted by a Coulter counter (Analis, Suarlée, Belgium). In some experiments, the antibiotic plasmocin was added one or three days before addition of the test compounds.

Assay [3] deals with MCF-7/HYOR cells. The assay is described as follows: Tumor cell proliferation assay, M. hyorhinis-infected MCF-7 cells. Particulars: for IC50: Homo sapiens. Format: cell-based, human. As to the method: Mycoplasma hyorhinis (ATCC 17981) was obtained from the American Type Culture Collection (ATCC, Manassas, Va.). The freeze-dried bacteria were reconstituted by adding 1 ml of DMEM. […] The co-culture of MCF-7 cells and M. hyorhinis was maintained under the same conditions as the uninfected MCF-7 cells. […] The cells were incubated for another 4 days, trypsinized and counted by a Coulter counter (Analis, Suarlée, Belgium).

Like-named read-outs stand apart in the source and are kept apart here.

T1 sequence (P07650 whole entry): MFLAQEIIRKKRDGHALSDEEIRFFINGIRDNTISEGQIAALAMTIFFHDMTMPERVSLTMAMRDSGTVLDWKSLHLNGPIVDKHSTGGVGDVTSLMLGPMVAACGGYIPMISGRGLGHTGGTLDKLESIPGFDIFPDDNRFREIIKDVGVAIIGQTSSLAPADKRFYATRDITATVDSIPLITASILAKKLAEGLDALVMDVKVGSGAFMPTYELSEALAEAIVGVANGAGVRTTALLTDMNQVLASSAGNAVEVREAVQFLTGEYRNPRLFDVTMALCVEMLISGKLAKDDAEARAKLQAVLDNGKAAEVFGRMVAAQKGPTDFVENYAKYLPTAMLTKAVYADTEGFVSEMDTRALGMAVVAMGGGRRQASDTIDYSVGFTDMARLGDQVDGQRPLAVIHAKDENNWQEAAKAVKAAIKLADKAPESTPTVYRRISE

Consider `Cl.N=C1CCCN1Cc1[nH]c(=O)[nH]c(=O)c1Cl` [TPi, 5-chloro-6-(1 [2-iminopyrrolidinyl]methyl)uracil hydrochloride], for which the “Inhibition of conversion of dThd, TFT, FdUrd and 5′DFUR to their free bases in MCF-7/HYOR culture medium” value with M. hyorhinis TP (10 μM TPi, 200 μM substrate) is recorded as “completely inhibited”. Besides, in the assay with M. hyorhinis, the “Effect on the growth of M. hyorhinis in MCF-7 cell cultures” value is recorded as “not inhibitory”.
Turning to `Cc1cn([C@H]2C[C@H](O)[C@@H](CO)O2)c(=O)[nH]c1=O` [dThd, thymidine], the “Percent conversion of nucleoside to the free pyrimidine base in MCF-7/HYOR medium” value in the assay with M. hyorhinis TP (16 hours, 200 μM substrate) worked out at 97%. Further, in the assay on M. hyorhinis TP (within 60 minutes, FIG. 3), the “Thymidine degraded into thymine” value is given as “almost all”. In addition, at E. coli TP (2 hours), the “Percent conversion of nucleoside to the free pyrimidine base, recombinant E. coli TP” value turned out to be 82%. Also, the “Percent conversion of nucleoside to the free pyrimidine base, recombinant E. coli TP” value at E. coli TP (16 hours) was determined as 93%. In the assay on MCF-7/HYOR cell cultures (1 μCi, 16 h), the “% of drug-derived radiolabel, In medium, Base” value worked out at 74.6%; the “% of drug-derived radiolabel, In medium, Nucleoside” value is reported as 11.5%; the “% of drug-derived radiolabel, In the cytosol of the cells, 5′-diphosphate” value is given as 0.3%; the “% of drug-derived radiolabel, In the cytosol of the cells, 5′-monophosphate” value worked out at 0.6%. Moreover, in the assay on MCF-7/HYOR cell cultures (1 μCi, 16 h), the “% of drug-derived radiolabel, In the cytosol of the cells, 5′-triphosphate” value came out at 0.2%; the “% of drug-derived radiolabel, In the cytosol of the cells, Nucleoside/nucleobase” value is reported as 7.5%; the “% of drug-derived radiolabel, Incorporatio into DNA/RNA” value was determined as 5.3%. Moreover, the “Share incorporated into the nucleic acids in the presence of TPi” value with MCF-7/HYOR cell cultures (in the presence of TPi) is “almost all”. Besides, the “Reduction of incorporation into nucleic acids in infected MCF-7/HYOR cells in comparison with uninfected MCF-7 cells” value in the assay with MCF-7/HYOR cells [1] is 85 fold. Further, the “Conversion in the medium of uninfected MCF-7 cells” value in assay [2] was “no conversion”.
`C[C@H]1O[C@@H](n2cc(F)c(=O)[nH]c2=O)[C@H](O)[C@@H]1O` [5′DFUR, 5-fluoro-5′-deoxyuridine]: the “Percent conversion of nucleoside to the free pyrimidine base in MCF-7/HYOR medium” value came to 5% with M. hyorhinis TP (2 hours, 200 μM substrate) and 22% in the assay with M. hyorhinis TP (16 hours, 200 μM substrate). The “Percent conversion of nucleoside to the free pyrimidine base, recombinant E. coli TP” value at E. coli TP (2 hours) worked out at 26%; at E. coli TP (16 hours) it was 64%. The IC50 with MCF-7 cells (MCF7, 96 h, no TPi, 4 days, read-out: IC50 MCF-7 As such) was above 100 µM; in the assay with MCF-7 cells (MCF7, with 10 μM TPi, read-out: IC50 MCF-7 +TPi (10 μM)), above 100 µM; in the assay on MCF-7/HYOR cells [3] (MCF7, read-out: IC50 MCF-7/HYOR +TPi (10 μM)), above 100 µM; with MCF-7/HYOR cells [3] (MCF7, read-out: IC50 MCF-7/HYOR As such), 3.5 ± 0.53 µM; in the assay with MCF-7/HYOR cells [3] (MCF7, plasmocin 25 μg/ml, 1 day pretreatment, read-out: IC50 MCF-7/HYOR +plasmocin (25 μg/ml) 1 day prior to addition of test compounds) it was above 100 µM; with MCF-7/HYOR cells [3] (MCF7, plasmocin 25 μg/ml, 3 days pretreatment, read-out: IC50 MCF-7/HYOR +plasmocin (25 μg/ml) 3 days prior to addition of test compounds) it was above 100 µM. The “Ratio (1)/(2) MCF-7/HYOR” value in the assay on MCF-7/HYOR cells [3] (IC50 in the absence of TPi to IC50 in the presence of TPi) is below 0.035. Moreover, the “Conversion in the medium of uninfected MCF-7 cells” value in assay [2] is “no conversion”.
